From publication PMC10656490, “Sequence-based prediction of the intrinsic solubility of peptides containing non-natural amino acids” (Nature Communications, 2023)
Where a SMILES comes first, the peptide text is derived from it. [ ]: non-standard residue; d: D form. Nle = CCCC[C@H](N)C(=O)O

What was measured:
[1] = cited from earlier work
[2] = Ammonium sulphate (AMS) precipitation relative solubility assay (18 A variants); format: physicochemical; details: 18A variants
Description: Relative solubility was measured using a recently developed PEG precipitation assay. For all PYY variants the standard assay worked well, and no changes had to be implemented (Fig. 2a). […] Moreover, to ensure that the results stemming from the AMS assay are consistent and reliable, we performed the 18 A experiments twice independently on different days. The results confirmed that they are indeed replicable, and we were therefore confident to use them for the validation of our approach (Supplementary Fig. 3). […] Even at final concentrations of 0.33 mg/mL (instead of 1 mg/mL) most variants remained insoluble. We used ultracentrifugation to determine the relative solubilities of the GLP-1 variants (Table 3). To confirm the reliability of this method we replicated the results on a different day with the same stock solutions (Supplementary Fig. 4).
Aliquots of 1 mg were prepared from the purified and lyophilised stocks. […] Briefly, a precipitant is titrated in increasing concentration to a fixed concentration of protein to induce precipitation of the protein. The samples are incubated for 48 h at 4° after mixing. The samples are centrifuged and the remaining protein concentration is measured in the supernatant using a plate reader. PYY and 18 A variants were dissolved in 10 mM citrate 10 mM phosphate buffer at pH 7 for a final concentration of 3 mg/mL. The assay was run with 50% 6000 PEG for PYY and with 3.8 M AMS for 18 A. To improve throughput, a multichannel robot was employed to measure several peptides at once with the workflow being kept the same as described previously. […] 120 µL of each sample were centrifuged using an OptimaTLX Ultracentrifuge and spinning for 30 min at 500,000 g at 4 °C. The supernatant was removed, and the peptide concentration was measured using a NanoDrop.

PEG1/2 ([2]; Figure 3b) | Second Run ([2]; precipitation midpoint, second run, Figure S3) | Molecule | half-life [1]
 |  | PYY: gut hormone with a length of 36 amino acids | approximately 10 minutes
1.618 | 0.923 | CCCC[C@H](NC(=O)[C@@H](NC(=O)[C@H](CCCCN)NC(=O)[C@H](CC(=O)O)NC(=O)[C@H](Cc1ccc(O)cc1)NC(=O)[C@H](Cc1ccccc1)NC(=O)[C@H](C)NC(=O)[C@H](CCCCN)NC(=O)[C@H](Cc1ccccc1)NC(=O)[C@H](Cc1c[nH]c2ccccc12)NC(=O)[C@H](CC(=O)O)NC(C)=O)C(C)C)C(=O)N[C@@H](CCC(=O)O)C(=O)N[C@@H](CCCCN)C(=O)N[C@@H](Cc1ccccc1)C(=O)N[C@@H](CCCCN)C(=O)N[C@@H](CCC(=O)O)C(=O)N[C@@H](C)C(=O)N[C@@H](Cc1ccccc1)C(N)=O [Compound 13] (Ac-DWFKAFYDKV[Nle]EKFKEAF-NH2) | 
